Reference: patent US12029804B2, “Peptide for promoting mucous membrane permeation and composition containing same” (SOONCHUNHYANG UNIVERSITY INDUSTRY ACADEMY COOPERATION …, priority 2018, dated 2024)
Where two headings read alike, the source gives them in different places. Bridge positions count the residues as written; N and C are the ends. Square brackets hold non-standard residues; d marks the D form. Ends that are not written are not given here. Peptide text beside a SMILES is read from it. I, II: the chains in the order shown. ξ: configuration not given here. Dap(N3) = [N-]=[N+]=NC[C@H](N)C(=O)O; ξDap(N3) = [N-]=[N+]=NCC(N)C(=O)O

Assays:
nasal mucous membrane = conditions: rat, intranasal; for AUC0-360min of fexofenadine, times higher than the group dosed with fexofenadine alone: fexofenadine with peptide (text on Table 1)
Description: Male Sprague-Dawley (SD) rats (280-300 g) were acclimated for a minimum of two days in individual cages in a laboratory animal room. At this time, the rats were allowed to freely consume food and water before an experiment, provided with light for 12 hours, and maintained in the dark state for 12 hours. One day before the experiment, the animals were provided only with water and fasted.
The rats prepared in above 1 were divided into each group of three to five rats so as to prepare a total of nine groups, after which each of the test substances prepared was intranasally administered into the group. At this time, the dosage of each drug was 1.0, 2.5 or 5.0 mg/kg per rat.
Before intranasal administration, the rat was anesthetized and cannulated into the femoral veno-artery using PE-50. The solution was carefully administered to the nostril of the rat using a micropipette (Eppendof) so as not to affect the nasal mucous membrane. At this time, the rat's body was laid on the floor and the head was placed while leaning against the wall.
(§1) The collected blood was centrifuged at 13,000 rpm for 10 minutes so as to obtain 100 μl of plasma. After adding 200 μl of methanol to the obtained plasma, the resulting solution was subjected into vortex, and then centrifuged again at 13,000 rpm for 10 minutes to carry out deproteinization, and the supernatant was quantitatively analyzed by HPLC-MS.

[1] = test system: intestinal mucous membrane; test: Intestinal (duodenum) administration of doxorubicin with peptide or peptide dimer in rats, doxorubicin blood concentration; conditions: rat, duodenum, peptide 10 mg/kg vs doxorubicin only
Description: (§2) For a control group, a 0.5% (w/v) levan aqueous solution including doxorubicin without the peptide was prepared.
(§3) At this time, the dosage of peptide-containing drug was 10 mg/kg for each group.
(§4) Before drug administration, the rat was anesthetized and cannulated into the femoral veno-artery using PE-50. An abdominal cavity was opened and the test substance was administered to an upper duodenum of the small intestine.
as §1, with “After administration of the solution through a cannula inserted into the femoral vein of the rat, each 250 μl of blood was collected at 5, 10, 20, 40, 60, 120, 180 and 240 minutes and saline was supplemented via the femoral artery. The” for “The”, “HPLC-Fluorescence.” for “HPLC-MS.”

in vitro = conditions: human, Caco-2
in vivo = conditions: rat, in vivo
Description: as §2, §3, §4
as §1, with “After administration of the solution through a cannula inserted into the femoral vein of the rat, each 250 μl of blood was collected at 5, 10, 20, 40, 60, 120, 180 and 240 minutes and saline was supplemented via the femoral artery. The” for “The”, “HPLC-Fluorescence.” for “HPLC-MS.”

Caco-2 monolayer = test: Drug permeability through the Caco-2 monolayer with peptide; conditions: peptide 5 mM, all drugs of Table 3
[2] = test system: intestinal mucous membrane; conditions: rat, duodenum
Description: as §4
as §1, with “After administration of the solution through a cannula inserted into the femoral vein of the rat, each 250 μl of blood was collected at 5, 10, 20, 40, 60, 120, 180 and 240 minutes and saline was supplemented via the femoral artery. The” for “The”

[3] = rat, plasma, 10 mg/kg
Description: as §4
as §1, with “After administration of the solution through a cannula inserted into the femoral vein of the rat, each 250 μl of blood was collected at 5, 10, 20, 40, 60, 120, 180 and 240 minutes and saline was supplemented via the femoral artery. The” for “The”

[4] = fexofenadine with peptide vs fexofenadine alone

Compound | Fexofenadine AUC0-240 min, fold of control group (nasal mucous membrane; [4]) | Fexofenadine Cmax, fold of control group (nasal mucous membrane; [4]) | Fexofenadine Tmax, fold of control group (nasal mucous membrane; [4]) | Doxorubicin AUC0-240 min, fold of control [1] | further results
FCIGRL-NH2 [Preparation Example 1, FCIGRL-NH2, reference compound] | (1.70-fold) | (1.45-fold) | (1.14-fold) | (1.49-fold) | –
COCCc1ccc(OCC(O)CNC(C)C)cc1 (stereo not drawn) [metoprolol] | – | – | – | – | Papp (in vitro): 38.9 ×10⁻⁶ cm/s
CC[C@H](C)[C@H](NC(=O)[C@H](CSSC[C@H](NC(=O)[C@@H](N)Cc1ccccc1)C(=O)N[C@H](C(=O)NCC(=O)N[C@@H](CCCNC(=N)N)C(=O)N[C@@H](CC(C)C)C(=O)O)[C@@H](C)CC)NC(=O)[C@@H](N)Cc1ccccc1)C(=O)NCC(=O)N[C@@H](CCCNC(=N)N)C(=O)N[C@@H](CC(C)C)C(=O)O [Example 4, FCIGRL-OH Dimer] (I: H-FCIGRL-OH / II: H-FCIGRL-OH; disulfide I:2-II:2) | (3.64-fold) | 6 fold | (0.41-fold) | – | AUC0-360min of fexofenadine, times higher than the group dosed with fexofenadine alone (nasal mucous membrane): 3.6 times; Fexofenadine Cmax, fold of control group (nasal mucous membrane; fexofenadine with peptide vs fexofenadine alone, listed as H-FCIGRL-OH (Dimer)): (6.06-fold)
COc1cccc2c1C(=O)c1c(O)c3c(c(O)c1C2=O)C[C@@](O)(C(=O)CO)C[C@@H]3O[C@H]1C[C@H](N)[C@H](O)[C@H](C)O1 [Doxorubicin, doxorubicin, reference compound] | – | – | – | – | AUC(0-t) (in vivo; male, Sprague-Dawley): 76.2 ng·h/mL
CC[C@H](C)[C@H](NC(=O)C(CN=[N+]=[N-])NC(=O)[C@H](N)Cc1ccccc1)C(=O)NCC(=O)N[C@@H](CCCNC(=N)N)C(=O)N[C@@H](CC(C)C)C(N)=O (stereo partly drawn) [Example 1, FX1IGRL-NH2(X1=Dap(N3))] (H-[dF][ξDap(N3)]IGRL-NH2) | (1.92-fold) | 3 fold | (0.57-fold) | (1.81-fold) | Fexofenadine Cmax, fold of control group (nasal mucous membrane; fexofenadine with peptide vs fexofenadine alone, listed as H-FX1IGRL-NH2): (2.90-fold); Fexofenadine AUC0-240 min, fold of control group (nasal mucous membrane; peptide 1 mg/kg): (1.64-fold); Fexofenadine Cmax, fold of control group (nasal mucous membrane; peptide 1 mg/kg): 2 fold; Fexofenadine Tmax, fold of control group (nasal mucous membrane; peptide 1 mg/kg): (0.57-fold); Fexofenadine Cmax, fold of control group (nasal mucous membrane; peptide 1 mg/kg, listed as H-FX1IGRL-NH2): (2.01-fold); Fexofenadine AUC0-240 min, fold of control group (nasal mucous membrane; peptide 5 mg/kg): (2.48-fold); Fexofenadine Cmax, fold of control group (nasal mucous membrane; peptide 5 mg/kg): 4 fold; Fexofenadine Tmax, fold of control group (nasal mucous membrane; peptide 5 mg/kg): (0.43-fold); Fexofenadine Cmax, fold of control group (nasal mucous membrane; peptide 5 mg/kg, listed as H-FX1IGRL-NH2): (4.05-fold); Fexofenadine Tmax, fold of control group (nasal mucous membrane; peptide […]): (0.57-fold)
FRIGRL [Preparation Example 3, FRIGRL, reference compound] | (1.39-fold) | (0.73-fold) | (1.71-fold) | – | –
FKIGRL [Preparation Example 4, FKIGRL, reference compound] | (1.09-fold) | (0.71-fold) | (1.14-fold) | – | –
CC[C@H](C)[C@H](NC(=O)[C@H](CSSC[C@H](NC(=O)[C@H](Cc1ccccc1)NC(=O)[C@@H](N)CN=[N+]=[N-])C(=O)N[C@H](C(=O)NCC(=O)N[C@@H](CCCNC(=N)N)C(=O)N[C@@H](CC(C)C)C(N)=O)[C@@H](C)CC)NC(=O)[C@H](Cc1ccccc1)NC(=O)[C@@H](N)CN=[N+]=[N-])C(=O)NCC(=O)N[C@@H](CCCNC(=N)N)C(=O)N[C@@H](CC(C)C)C(N)=O [Example 5, X1FCIGRL-NH2 Dimer] (I: H-[Dap(N3)]FCIGRL-NH2 / II: H-[Dap(N3)]FCIGRL-NH2; disulfide I:3-II:3) | – | – | – | (1.77-fold) | –
CC[C@@H](C)[C@@H](NC(=O)[C@@H](CSSC[C@H](NC(=O)[C@H](N)Cc1ccccc1)C(=O)N[C@H](C(=O)NCC(=O)N[C@@H](CCCNC(=N)N)C(=O)N[C@@H](CC(C)C)C(N)=O)[C@@H](C)CC)NC(=O)[C@@H](N)Cc1ccccc1)C(=O)NCC(=O)N[C@H](CCCNC(=N)N)C(=O)N[C@H](CC(C)C)C(N)=O [Example 3, FCIGRL-NH2 Dimer] (I: H-F[dC][dI]G[dR][dL]-NH2 / II: H-[dF]CIGRL-NH2; disulfide I:2-II:2) | (5.30-fold) | 9.7 fold | (0.38-fold) | (2.29-fold) | increase rate of Papp (cm/sec) of each drug, effect of promoting mucous membrane permeation (Caco-2 monolayer): at least seven times higher; AUC0-360min of fexofenadine, times higher than the group dosed with fexofenadine alone (nasal mucous membrane): 5.3 times; Fexofenadine Cmax, fold of control group (nasal mucous membrane; fexofenadine with peptide vs fexofenadine alone, listed as H-FCIGRL-NH2 (Dimer)): (9.76-fold); AUC(0-t) (in vivo; 10 mg/kg): 174 ng·h/mL; Exenadine AUC0-240 min, fold of control ([2]; 5 mg/kg of peptide dimer vs exenadine alone, 5 mg/kg): about 2.17 fold; Exenadine AUC0-240 min, fold of control ([2]; 5 mg/kg of peptide dimer vs exenadine alone, listed as H-FCIGRL-NH2 (Dimer), 5 mg/kg): 3.88(2.17-fold); Exenadine AUC0-240 min, fold of control ([2]; 10 mg/kg of peptide dimer vs exenadine alone, 10 mg/kg): ~4.57 fold; Exenadine AUC0-240 min, fold of control ([2]; 10 mg/kg of peptide dimer vs exenadine alone, listed as H-FCIGRL-NH2 (Dimer), 10 mg/kg): 6.32 (4.57-fold); AUC(0-t) [3]: 343 ng·h/mL
FCIGRL [Preparation Example 2, FCIGRL, reference compound] | (1.53-fold) | (1.16-fold) | (1.52-fold) | – | –
